From patent US20260070945A1, “MACROCYCLIC IMMUNOMODULATORS” (Bristol-Myers Squibb Company, priority 2022, published 2026) come the findings set out here.

Molecules are shown by their SMILES. *1 amine or outer side, *2 acyl side, *3 side chain or, on linkers, in order; H or OH if unused. Where a SMILES comes first, the peptide text is derived from it. Bridges are numbered along the chain shown (N, C = ends). [ ]: non-standard residue; d: D form. The star is where a group is joined. ξ: configuration not given here. Phe(4-COOH) = N[C@@H](Cc1ccc(C(=O)O)cc1)C(=O)O; Bip = N[C@@H](Cc1ccc(-c2ccccc2)cc1)C(=O)O; NH(CH2)14COOH = O=C(O)CCCCCCCCCCCCCCN*; Phe(3-Me) = Cc1cccc(C[C@H](N)C(=O)O)c1; γGlu = O=C(O)[C@H](CCC(=O)[*:2])N[*:1]; βAsp = O=C(O)[C@H](CC(=O)[*:2])N[*:1]; NH(CH2)12COOH = O=C(O)CCCCCCCCCCCCN*; aIle = CC[C@@H](C)[C@H](N)C(=O)O; hArg = N=C(N)NCCCC[C@H](N)C(=O)O; 4Pal = N[C@@H](Cc1ccncc1)C(=O)O; Cha = N[C@@H](CC1CCCCC1)C(=O)O; Ile(3ξ) = CCC(C)[C@H](N)C(=O)O; Thr(3ξ) = CC(O)[C@H](N)C(=O)O; 12Ado = NCCCCCCCCCCCC(=O)O; Carboxymethyl = O=C(O)C*; NMeA = CN[C@@H](C)C(=O)O; Nle = CCCC[C@H](N)C(=O)O; Orn = NCCC[C@H](N)C(=O)O; dDap = NC[C@@H](N)C(=O)O; Aun = NCCCCCCCCCCC(=O)O; Dab = NCC[C@H](N)C(=O)O; AEEA = NCCOCCOCC(=O)O

The target in the test is T1, PD-1/PD-L1 interaction (PE-labeled human PD-L1-Ig binding to Jurkat cell line over-expressing human PD-1) (Homo sapiens, UniProt Q15116).
T1 construct: expressed in transfected cells; host or cells: Jurkat
T1 sequence (Q15116 25-288): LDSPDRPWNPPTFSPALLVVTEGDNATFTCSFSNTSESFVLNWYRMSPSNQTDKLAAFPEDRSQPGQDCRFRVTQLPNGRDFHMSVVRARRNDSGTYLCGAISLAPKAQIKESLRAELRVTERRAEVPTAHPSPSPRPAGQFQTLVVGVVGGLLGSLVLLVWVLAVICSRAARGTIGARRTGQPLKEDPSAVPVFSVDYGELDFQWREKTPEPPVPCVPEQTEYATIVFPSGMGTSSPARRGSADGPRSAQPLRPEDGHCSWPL
Briefly: Jurkat-PD-1 Cell Binding High-Content Screening Assay (CBA). The note with it: Jurkat-hPD-1 cells, PE-labeled PD-L1-Ig 20 nM final; read-out: Jurkat HPD1 PDL1 IC50. The procedure, abridged:
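Read-out: high-content imaging of cell-bound PE fluorescence, with Hoechst 33342 nuclear counterstain after paraformaldehyde fixation. Before labeled ligand (20 nM final, 1 h) was added, compound sat on the cells for 2 h at 37 °C in DMEM/10% FCS.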
Take `CC(C)C[C@H]1NC(=O)[C@H](C)N(C)C(=O)[C@H](C(C)C)NC(=O)[C@H](Cc2ccc(-c3ccccc3)cc2)NC(=O)[C@H](C(C)C)NC(=O)[C@H](Cc2c[nH]c3ccccc23)NC(=O)[C@H](CC(=O)O)NC(=O)[C@H](Cc2ccc(C(=O)O)cc2)NC(=O)[C@H](Cc2ccncc2)NC(=O)CSC[C@@H](C(=O)N[C@@H](CCN)C(=O)NCCCCCCCCCCCCCCC(=O)O)NC(=O)[C@H](CO)NC(=O)[C@H](C(C)C)NC(=O)[C@H](CC2CCCCC2)NC(=O)[C@H](CCN)NC1=O` [Example 2004] ({CH2CO}-[4Pal][Phe(4-COOH)]DWV[Bip]V[NMeA][dL][Dab][Cha]VSC[Dab]-{NH(CH2)14COOH}; thioether N-14): the 50% inhibitory concentration (IC50) (in general, the point on the concentration scale where inhibition reaches its midpoint) came to 181 nM.
Next, `CC(C)C[C@@H]1NC(=O)[C@H](Cc2c[nH]c3ccccc23)NC(=O)[C@H](CC(=O)O)NC(=O)[C@H](Cc2ccc(C(=O)O)cc2)NC(=O)[C@H](C(C)O)NC(=O)CSC[C@@H](C(=O)N[C@@H](C)C(=O)N[C@@H](CCN)C(=O)NCCCCCCCCCCCCCCC(=O)O)NC(=O)[C@H](CO)NC(=O)[C@H](C(C)C)NC(=O)[C@H](CC2CCCCC2)NC(=O)[C@H](CCN)NC(=O)[C@@H](CC(C)C)NC(=O)[C@H](C)N(C)C(=O)[C@H](C(C)C)NC(=O)[C@H](Cc2ccc(-c3ccccc3)cc2)NC1=O` (stereo partly drawn) [Example 2005] ({CH2CO}-[Thr(3ξ)][Phe(4-COOH)]DWL[Bip]V[NMeA][dL][Dab][Cha]VSCA[Dab]-{NH(CH2)14COOH}; thioether N-14): 223 nM; `CCC(C)[C@@H]1NC(=O)[C@H](Cc2ccc(-c3ccccc3)cc2)NC(=O)[C@H](C(C)C)NC(=O)[C@H](Cc2c[nH]c3ccccc23)NC(=O)[C@H](CC(=O)O)NC(=O)[C@H](Cc2ccc(OCC(=O)O)cc2)NC(=O)[C@H](C(C)O)NC(=O)CSC[C@@H](C(=O)N[C@@H](C)C(=O)NCCOCCOCC(=O)N[C@@H](CCC(=O)NCCOCCOCC(=O)N[C@@H](CCC(=O)NCCOCCOCC(=O)N[C@@H](CCCCN)C(=O)NCCCCCCCCCCCCC(=O)O)C(=O)O)C(=O)O)NC(=O)[C@H](C(C)O)NC(=O)[C@H](C(C)C)NC(=O)[C@H](CC2CCCCC2)NC(=O)[C@H](CCN)NC(=O)[C@@H](CC(C)C)NC(=O)[C@H](C)N(C)C1=O` (stereo partly drawn) [Example 2009] ({CH2CO}-[Thr(3ξ)]Y(Carboxymethyl)DWV[Bip][Ile(3ξ)][NMeA][dL][Dab][Cha]V[Thr(3ξ)]CA[AEEA][γGlu][AEEA][γGlu][AEEA]K-{NH(CH2)12COOH}; thioether N-14): 58.3 nM; `CCC(C)[C@@H]1NC(=O)[C@H](Cc2ccc(-c3ccccc3)cc2)NC(=O)[C@H](C(C)C)NC(=O)[C@H](Cc2c[nH]c3ccccc23)NC(=O)[C@H](CC(=O)O)NC(=O)[C@H](Cc2ccc(OCC(=O)O)cc2)NC(=O)[C@H](C(C)O)NC(=O)CSC[C@@H](C(=O)N[C@@H](C)C(=O)NCCOCCOCC(=O)N[C@@H](CCC(=O)NCCOCCOCC(=O)N[C@@H](CCC(=O)NCCOCCOCC(=O)N[C@@H](CCCN)C(=O)NCCCCCCCCCCCC(=O)O)C(=O)O)C(=O)O)NC(=O)[C@H](C(C)O)NC(=O)[C@H](C(C)C)NC(=O)[C@H](CC2CCCCC2)NC(=O)[C@H](CCN)NC(=O)[C@@H](CC(C)C)NC(=O)[C@H](C)N(C)C1=O` (stereo partly drawn) [Example 2010] ({CH2CO}-[Thr(3ξ)]Y(Carboxymethyl)DWV[Bip][Ile(3ξ)][NMeA][dL][Dab][Cha]V[Thr(3ξ)]CA[AEEA][γGlu][AEEA][γGlu][AEEA][Orn][12Ado]-OH; thioether N-14): 34.8 nM.
In the case of `CCCC[C@@H]1NC(=O)CSC[C@@H](C(=O)N[C@@H](CCN)C(=O)NCCOCCOCC(=O)N[C@@H](CCC(=O)NCCOCCOCC(=O)NCCCCCCCCCCCCC(=O)O)C(=O)O)NC(=O)[C@H](CCC(=O)O)NC(=O)[C@H](C(C)C)NC(=O)[C@H](CC2CCCCC2)NC(=O)[C@H](CCN)NC(=O)[C@@H](CC(C)C)NC(=O)[C@H](C)N(C)C(=O)[C@H](Cc2ccc(OCC(=O)O)cc2)NC(=O)[C@H](Cc2ccc(-c3ccccc3)cc2)NC(=O)[C@H](Cc2ccc(OCC(=O)O)cc2)NC(=O)[C@H](Cc2cccc(C)c2)NC(=O)[C@H](CC(=O)O)NC(=O)[C@H](Cc2ccc(OCC(=O)O)cc2)NC1=O` [Example 2011] ({CH2CO}-[Nle]Y(Carboxymethyl)D[Phe(3-Me)]Y(Carboxymethyl)[Bip]Y(Carboxymethyl)[NMeA][dL][Dab][Cha]VEC[Dab][AEEA][γGlu][AEEA]-{NH(CH2)12COOH}; thioether N-14), the concentration for half-maximal inhibition (IC50) came out at 88.3 nM.
Next, `CC(C)C[C@@H]1NC(=O)[C@H](Cc2c[nH]c3ccccc23)NC(=O)[C@H](CC(=O)O)NC(=O)[C@H](Cc2ccc(OCC(=O)O)cc2)NC(=O)[C@H](CCCCNC(=N)N)NC(=O)CSC[C@@H](C(=O)N[C@@H](CC(N)=O)C(=O)NCCOCCOCC(=O)N[C@@H](CC(=O)NCCCCCCCCCCC(=O)O)C(=O)O)NC(=O)[C@H](CO)NC(=O)[C@H](C(C)C)NC(=O)[C@H](CC(C)C)NC(=O)[C@H](CC(N)=O)NC(=O)[C@@H](CC(C)C)NC(=O)[C@H](C)N(C)C(=O)[C@H](C(C)C)NC(=O)[C@H](Cc2ccc(-c3ccccc3)cc2)NC1=O` [Example 2012] ({CH2CO}-[hArg]Y(Carboxymethyl)DWL[Bip]V[NMeA][dL]NLVSCN[AEEA][βAsp][Aun]-OH; thioether N-14): 21 nM.
The figure for `CC[C@@H](C)[C@@H]1NC(=O)[C@H](Cc2ccc(-c3ccccc3)cc2)NC(=O)[C@H](C(C)C)NC(=O)[C@H](Cc2c[nH]c3ccccc23)NC(=O)[C@H](CC(=O)O)NC(=O)[C@H](Cc2ccc(OCC(=O)O)cc2)NC(=O)[C@H](Cc2ccncc2)NC(=O)CSC[C@@H](C(=O)N[C@H](CN)C(=O)NCCOCCOCC(=O)N[C@@H](CCC(=O)NCCOCCOCC(=O)N[C@@H](CCC(=O)NCCOCCOCC(=O)N[C@@H](CCCN)C(=O)NCCCCCCCCCCC(=O)O)C(=O)O)C(=O)O)NC(=O)[C@H](Cc2c[nH]cn2)NC(=O)[C@H](C(C)C)NC(=O)[C@H](CC2CCCCC2)NC(=O)[C@H](CC(N)=O)NC(=O)[C@@H](CC(C)C)NC(=O)[C@H](C)N(C)C1=O` [Example 2013] ({CH2CO}-[4Pal]Y(Carboxymethyl)DWV[Bip][aIle][NMeA][dL]N[Cha]VHC[dDap][AEEA][γGlu][AEEA][γGlu][AEEA][Orn][Aun]-OH; thioether N-14) is 74.1 nM.
The figure for `CC[C@@H](C)[C@@H]1NC(=O)[C@H](Cc2ccc(-c3ccccc3)cc2)NC(=O)[C@H](C(C)C)NC(=O)[C@H](Cc2c[nH]c3ccccc23)NC(=O)[C@H](CC(=O)O)NC(=O)[C@H](Cc2ccc(OCC(=O)O)cc2)NC(=O)[C@H](Cc2ccncc2)NC(=O)CSC[C@@H](C(=O)N[C@H](CN)C(=O)NCCOCCOCC(=O)N[C@@H](CCC(=O)NCCOCCOCC(=O)N[C@@H](CCC(=O)NCCOCCOCC(=O)N[C@@H](CCCN)C(=O)NCCCCCCCCCCC(=O)O)C(=O)O)C(=O)O)NC(=O)[C@H](CO)NC(=O)[C@H](C(C)C)NC(=O)[C@H](CC2CCCCC2)NC(=O)[C@H](CC(N)=O)NC(=O)[C@@H](CC(C)C)NC(=O)[C@H](C)N(C)C1=O` [Example 2014] ({CH2CO}-[4Pal]Y(Carboxymethyl)DWV[Bip][aIle][NMeA][dL]N[Cha]VSC[dDap][AEEA][γGlu][AEEA][γGlu][AEEA][Orn][Aun]-OH; thioether N-14) is 42.7 nM; for `CC[C@@H](C)[C@@H]1NC(=O)[C@H](Cc2ccc(-c3ccccc3)cc2)NC(=O)[C@H](C(C)C)NC(=O)[C@H](Cc2c[nH]c3ccccc23)NC(=O)[C@H](CC(=O)O)NC(=O)[C@H](Cc2ccc(OCC(=O)O)cc2)NC(=O)[C@H](Cc2ccncc2)NC(=O)CSC[C@@H](C(=O)N[C@H](CC(N)=O)C(=O)NCCOCCOCC(=O)N[C@@H](CCC(=O)NCCOCCOCC(=O)N[C@@H](CCC(=O)NCCOCCOCC(=O)N[C@@H](CCCN)C(=O)NCCCCCCCCCCC(=O)O)C(=O)O)C(=O)O)NC(=O)[C@H](CO)NC(=O)[C@H](C(C)C)NC(=O)[C@H](CC2CCCCC2)NC(=O)[C@H](CCN)NC(=O)[C@@H](CC(C)C)NC(=O)[C@H](C)N(C)C1=O` [Example 2015] ({CH2CO}-[4Pal]Y(Carboxymethyl)DWV[Bip][aIle][NMeA][dL][Dab][Cha]VSC[dN][AEEA][γGlu][AEEA][γGlu][AEEA][Orn][Aun]-OH; thioether N-14) it is 9.4 nM; for `CC[C@@H](C)[C@@H]1NC(=O)[C@H](Cc2ccc(-c3ccccc3)cc2)NC(=O)[C@H](C(C)C)NC(=O)[C@H](Cc2c[nH]c3ccccc23)NC(=O)[C@H](CC(=O)O)NC(=O)[C@H](Cc2ccc(OCC(=O)O)cc2)NC(=O)[C@H](Cc2ccncc2)NC(=O)CSC[C@@H](C(=O)N[C@H](C)C(=O)NCCOCCOCC(=O)N[C@@H](CCC(=O)NCCOCCOCC(=O)N[C@@H](CCC(=O)NCCOCCOCC(=O)N[C@@H](CCCN)C(=O)NCCCCCCCCCCC(=O)O)C(=O)O)C(=O)O)NC(=O)[C@H](CO)NC(=O)[C@H](C(C)C)NC(=O)[C@H](CC2CCCCC2)NC(=O)[C@H](CC(N)=O)NC(=O)[C@@H](CC(C)C)NC(=O)[C@H](C)N(C)C1=O` [Example 2016] ({CH2CO}-[4Pal]Y(Carboxymethyl)DWV[Bip][aIle][NMeA][dL]N[Cha]VSC[dA][AEEA][γGlu][AEEA][γGlu][AEEA][Orn][Aun]-OH; thioether N-14) it is 38.8 nM.
With `CC[C@@H](C)[C@@H]1NC(=O)[C@H](Cc2ccc(-c3ccccc3)cc2)NC(=O)[C@H](C(C)C)NC(=O)[C@H](Cc2c[nH]c3ccccc23)NC(=O)[C@H](CC(=O)O)NC(=O)[C@H](Cc2ccc(OCC(=O)O)cc2)NC(=O)[C@H](Cc2ccncc2)NC(=O)CSC[C@@H](C(=O)N[C@H](CC(N)=O)C(=O)NCCOCCOCC(=O)N[C@@H](CCC(=O)NCCOCCOCC(=O)N[C@@H](CCC(=O)NCCOCCOCC(=O)N[C@@H](CCCN)C(=O)NCCCCCCCCCCC(=O)O)C(=O)O)C(=O)O)NC(=O)[C@H](CO)NC(=O)[C@H](C(C)C)NC(=O)[C@H](CC2CCCCC2)NC(=O)[C@H](CC(N)=O)NC(=O)[C@@H](CC(C)C)NC(=O)[C@H](C)N(C)C1=O` [Example 2017] ({CH2CO}-[4Pal]Y(Carboxymethyl)DWV[Bip][aIle][NMeA][dL]N[Cha]VSC[dN][AEEA][γGlu][AEEA][γGlu][AEEA][Orn][Aun]-OH; thioether N-14), the half-maximal inhibitory concentration (IC50) was found to be 24.3 nM.
